What was measured:
[1] = Toxicity determined using Tadpole Narcosis Test; details: frog
[2] = system: Lithobates pipiens; assay: Inhibition of Rana pipiens muscle activity.; type: functional, frog, Muscle tissue
[3] = Toxicity determined using Golden Orfe Fish Test; details: leuciscus idus
[4] = Toxicity determined using Konemann's Industrial Pollutants Toxicity Test; details: fish
[5] = Toxicity determined using Microtox Test; type: ADME, Bacteria
[6] = The toxicity of compound was determined using Konemann's Industrial Pollutants Toxicity Test

| Compound | Log C [1] | Log LC50 [3] | further results |
| --- | --- | --- | --- |
| CBr [BROMOMETHANE] | -2.263 |  |  |
| CCCCO [BUTYL ALCOHOL] | -1.463 | -1.432 | Log MBC [2]: 1.78 |
| Cc1ccccc1 [TOLUENE] |  |  | Log MBC [2]: 1; Log LC50 [4]: 2.87 |
| C1CCOC1 [TETRAHYDROFURAN] |  | -1.815 |  |
| CC(=O)c1ccccc1 [ACETOPHENONE] | -2.891 |  |  |
| CCCCCOC(C)=O [ACETIC ACID PENTYL ESTER] | -2.727 |  |  |
| CCCCOC(=O)CCCC | -3.504 |  |  |
| CCC(=O)CC | -1.861 |  |  |
| Clc1cc(Cl)cc(Cl)c1 [1,3,5-TRICHLOROBENZENE] |  |  | Log LC50 [4]: 1.26 |
| CCO [ALCOHOL] | -0.484 |  | Log MBC [2]: 2.75; Log LC50 [4]: 5.38 |
| CCOC(=O)C(C)C | -2.3 |  |  |
| CCCCOC(C)=O [ACETIC ACID BUTYL ESTER] | -2.374 |  |  |
| CCCCCCCCO [OCTANOL] | -3.148 | -0.594 | Log MBC [2]: -0.016 |
| CCCOC(C)=O [ACETIC ACID PROPYL ESTER] | -1.969 |  |  |
| CCC(C)O (stereo not given) [BUTANOL] | -1.433 | -1.477 |  |
| OC1CCCC1 [CYCLOPENTANOL] |  | -0.97 |  |
| c1ccc2c(c1)ccc1ccccc12 | -5.791 |  |  |
| CCCO [PROPANOL] | -1.021 | -1.972 | Log MBC [2]: 2.4 |
| CC#N [ACETONITRILE] |  | -2.227 |  |
| Cc1ccc(C(C)C)c(O)c1 [THYMOL] | -3.574 |  | Log MBC [2]: -0.52 |
| CCC(C)=O [BUTANONE] | 1.401 | -1.663 |  |
| O=[N+]([O-])c1ccccc1 [NITROBENZENE] |  | -0.263 | Log MBC [2]: 0.47 |
| Nc1ccccc1 [ANILINE] |  |  | Log MBC [2]: 1.3 |
| O=C1CCCC1 [CYCLOPENTANONE] |  | -1.359 |  |
| c1ccncc1 [PYRIDINE] |  |  | Log MBC [2]: 1.77 |
| Clc1cc(Cl)c(Cl)cc1Cl |  |  | Log LC50 [4]: 0.15 |

| Compound | Log C [1] | Log LC50 [3] | further results |
| --- | --- | --- | --- |
| Oc1ccc2ccccc2c1 [BETANAPHTHOL] |  |  | Log MBC [2]: 0 |
| ClC=C(Cl)Cl [TRICHLOROETHYLENE] |  | -0.293 |  |
| ClC(Cl)Cl [CHLOROFORM] | -3.065 |  | Log MBC [2]: 1.5 |
| c1ccc2ncccc2c1 [QUINOLINE] |  |  | Log MBC [2]: 0.3 |
| CCC(C)(C)O [AMYLENE HYDRATE] | -1.859 | -0.907 |  |
| COc1ccccc1 [ANISOLE] | -2.493 | -0.305 |  |
| CC(Cl)(Cl)Cl [TRICHLOROETHANE] |  | -0.087 | Log LC50 [4]: 2.85 |
| CCCCCl [BUTYL CHLORIDE] |  |  | Log LC50 [4]: 3.02 |
| CO [METHYL ALCOHOL] | 0.17 |  | Log MBC [2]: 3.09 |
| CCC(O)CC [3-PENTANOL] |  |  | Log LC50 [4]: 4.05 |
| ClC(Cl)(Cl)Cl [CARBON TETRACHLORIDE] |  |  | Log EC50 [5]: -0.22 |
| ClCCCl [1,2-DICHLOROETHANE] | -2.374 |  |  |
| CCCCC(C)O (stereo not given) [2-HEXANOL] |  | -0.359 |  |
| CC(C)CO [ISOBUTANOL] |  | -1.43 |  |
| Clc1cc(Cl)c(Cl)c(Cl)c1 |  |  | Log LC50 [4]: 0.57 |
| O=C1CCCCC1 [CYCLOHEXANONE] |  | -0.66 |  |
| CC(C)(C)O [TERT-BUTANOL] | -1.429 |  |  |
| CCCCCCO [1-HEXANOL] |  | -0.315 | Log MBC [2]: 0.56 |
| ClC(Cl)C(Cl)Cl [1,1,2,2-TETRACHLOROETHANE] |  |  | Log LC50 [4]: 2.34 |
| CCOCC [ETHER] | -1.389 | -1.722 | Log MBC [2]: 1.93; Log LC50 [6]: 4.46 |
| Cc1cccc(C)c1 [M-XYLENE] |  |  | Log LC50 [4]: 2.55 |
| CCCCC(=O)OCC | -2.716 |  |  |
| CC(Cl)CCl (stereo not given) |  |  | Log LC50 [4]: 3.01 |
| c1ccccc1 [BENZENE] | -2.905 | -0.417 | Log LC50 [6]: 2.91 |
| CCCC(C)O (stereo not given) [2-PENTANOL] | -1.861 |  |  |
| CCCCOCCCC |  | -0.303 |  |

| Compound | Log C [1] | Log LC50 [3] | further results |
| --- | --- | --- | --- |
| Clc1ccccc1 [CHLOROBENZENE] |  |  | Log LC50 [4]: 2.23 |
| CCCC(C)=O | -1.785 |  |  |
| CCOC=O [ETHOXYCARBONYL GROUP] | -1.111 |  |  |
| Cc1ccccc1C [O-XYLENE] | -3.44 |  | Log LC50 [4]: 2.52 |
| OCc1ccccc1 [BENZYL ALCOHOL] |  |  | Log MBC [2]: 1.3 |
| CCCl [ETHYL CHLORIDE] | -1.655 |  |  |
| CC(C)=O [ACETONE] | -0.924 | -2.259 | Log MBC [2]: 2.6; Log LC50 [6]: 5.04 |
| ClCCl [METHYLENE CHLORIDE] |  |  | Log LC50 [4]: 3.54 |
| C[N+](=O)[O-] [NITROMETHANE] | -1.08 |  |  |
| COC=O [FORMIC ACID METHYL ESTER] | -1.075 |  |  |
| Cc1cc(Cl)c(Cl)cc1Cl |  |  | Log LC50 [4]: 0.94 |
| CCOC(=O)CC [ETHYL PROPIONATE] | -1.898 |  |  |
| c1ccc2ccccc2c1 | -4.225 |  |  |
| CCCCC [PENTANE] | -2.649 |  |  |
| Clc1cccc(Cl)c1Cl |  |  | Log LC50 [4]: 1.11 |
| CC(=O)OCC(C)C [ACETIC ACID ISOBUTYL ESTER] | -2.33 |  |  |
| Oc1ccccc1 [PHENOL] |  | -0.256 | Log MBC [2]: 1 |
| Cc1cccc(O)c1 [METACRESOL] |  | -0.694 |  |
| CCOC(C)=O [ETHYL ACETATE] | -1.502 |  |  |
| C=CCCC | -2.364 |  |  |
| CC(C)O [ISOPROPYL ALCOHOL] | -0.977 | -2.005 | Log MBC [2]: 2.55; Log LC50 [6]: 5.07 |
| CCCCCCCO [1-HEPTANOL] |  | -0.163 | Log MBC [2]: 0.2 |
| CCCCCO [1-PENTANOL] |  |  | Log MBC [2]: 1.2 |
| CCCC(O)CC (stereo not given) [HEXAN-3-OL] |  | -0.363 |  |
| CCCC(=O)OCC | -2.367 |  |  |

From ChEMBL document CHEMBL1125698, “Using theoretical descriptors in quantitative structure-activity relationships: some toxicological indices” (J Med Chem, 1991)
